{"source": "patent US9725415B2", "about": "“Process for the preparation of 5-fluoro-1H-pyrazoles” (BAYER CROPSCIENCE AKTIENGESELLSCHAFT, priority 2013, dated 2017)", "data": [{"test": "log P determination by HPLC on a phase inversion column (C18), EEC Directive 79/831 Annex V.A8", "type": "physicochemical", "conditions": "HPLC-MS method a): C18 column, gradient 10% to 95% acetonitrile (0.1% formic acid) / water (0.09% formic acid), oven 55° C.", "values": [{"smiles": "Cn1nc(C(F)(F)C(F)(F)F)c(C(F)(F)F)c1C(=O)Nc1ccc(Cl)c(C(=O)NCc2ccccc2)c1", "note": "[Compound (IIa), N-[4-chloro-3-(benzylcarbamoyl)phenyl]-1-methyl-3-(pentafluoroethyl)-4-(trifluoromethyl)-1H-pyrazole-5-carboxamide]", "chromatographic logP": 3.9}, {"smiles": "Cn1nc(C(F)(F)C(F)(F)F)c(C(F)(F)F)c1-n1cc(-c2ccc(Cl)c(C(=O)NC3(C#N)CC3)c2)cn1", "note": "[Compound (IIIa), 2-Chloro-N-1-cyano-cyclopropyl-5-[2′-methyl-5′-(pentafluoroethyl)-4′-(trifluoromethyl)-2′H-1,3′-bipyrazol-4-yl]benzamide]", "chromatographic logP": 3.72}, {"smiles": "Cn1nc(C(F)(F)C(F)(F)F)c(C(F)(F)F)c1-n1cc(Br)cn1", "note": "[Intermediate (12), 4-bromo-2′-methyl-5′-(pentafluoroethyl)-4′-(trifluoromethyl)-2′H-1,3′-bipyrazole]", "chromatographic logP": 4.14}]}]}
